Measured values as given in paper PMC7560456, “Synthesis, Selected Transformations, and Biological Activity of Alkoxy Analogues of Lepidilines A and C” (Materials, 2020).
Entries after “also recorded” stand apart in the source; their conditions may differ. Where a name gives a salt, the structure may show the parent alone. Values belong to the molecule of their own block, whether it stands above or below them.

Legend:
HL-60 cells = test: MTT in vitro cytotoxicity assay, HL-60; format: cell-based; settings: concentration required to inhibit metabolic activity by 50%, mean ± SEM
Method: (§1) The promyelocytic leukemia HL-60 and breast cancer adenocarcinoma MCF-7 cell lines were purchased from the European Collection of Cell Cultures (ECACC). […] MCF-7 cells were maintained in Minimum Essential Medium Eagle (Sigma Aldrich, St. Louis, MO, USA) supplemented with 2 mM glutamine and MEM nonessential amino-acid solution (Sigma Aldrich, St. Louis, MO, USA). Both media were supplemented with 10% heat-inactivated fetal bovine serum (Biological Industries, Beit-Haemek, Israel) and antibiotics (100 U/mL penicillin and 100 μg/mL streptomycin) (Sigma-Aldrich, St. Louis, MO, USA). Human umbilical vein endothelial cells (HUVECs) and human mammary gland/breast cell line MCF-10A were purchased from the American Type Culture Collection (ATCC). HUVECs were cultured using the EGM-2 Endothelial Medium BulletKit, whereas MCF-10A was cultured using the MEGM Mammary Epithelial BulletKit, both purchased from Lonza (Lonza, Walkersville, MD, USA).
(§2) The MTT (3-(4, 5-dimethylthiazol-2-yl)-2, 5-diphenyltetrazolium bromide) assay was performed according to the known procedure. Cells were seeded into 24-well plates at a density of 8 × 10^4/mL and left to grow for 24 h. After being cultured for 48 h with various concentrations of the tested compounds, cells were incubated with MTT solution (5 mg/mL in phosphate-buffered saline) for 2 h. Then, the plates were centrifuged and the supernatant was discarded. Dimethyl sulfoxide (DMSO; 1 mL) was added to each well to dissolve the blue formazan product, whose absorbance was measured at 560 nm using a FlexStation 3 Multi-Mode Microplate Reader (Molecular Devices, LLC, CA, USA). The untreated cells were used as control. The data were expressed as mean ± SEM of three independent experiments.

MCF-7 cells = test: MTT in vitro cytotoxicity assay, MCF-7; format: cell-based; settings: concentration required to inhibit metabolic activity by 50%, mean ± SEM
Method: as §1, §2

HUVECs = test: MTT in vitro cytotoxicity assay, HUVEC (normal cells); format: cell-based, human; settings: 48 h, mean ± SEM
Method: as §1, §2

MCF-10A cells = test: MTT in vitro cytotoxicity assay, MCF-10A (normal cells); format: cell-based, human; settings: 48 h, mean ± SEM
Method: as §1, §2

FDIGROV cell line = system: FDIGROV cell line; parameters: method as in PMID 12932133; settings: ovarian carcinoma; cited from earlier work
UMUC3 cell line = system: UMUC3 cell line; parameters: method as in PMID 12932133; settings: bladder carcinoma; cited from earlier work
PACA2 cell line = system: PACA2 cell line; parameters: method as in PMID 12932133; settings: pancreatic adenocarcinoma; cited from earlier work
MDA231 cell line = system: MDA231 cell line; parameters: method as in PMID 12932133; settings: breast carcinoma; cited from earlier work

Molecule: [Br-].c1ccc(CO[n+]2c(C34CC5CC(CC(C5)C3)C4)[nH]c(-c3ccccc3)c2-c2ccccc2)cc1 [4d, 1-Adamantyl-3-benzyloxy-4,5-diphenylimidazolium bromide]
melting point: 180 to 182 °C

Molecule: 1-Adamantyloxy-3-(2-methylbenzyloxy)-4,5-dimethylimidazolium bromide [5i]
IC50 (HL-60 cells; 48 h): 0.67 ± 0.01 µM | IC50 (MCF-7 cells; 48 h): 5.95 ± 0.35 µM | IC50 (HUVECs): 3.96 ± 0.08 µM

Molecule: 1-Adamantyloxy-3-benzyloxy-4,5-dimethylimidazolium bromide [5h]
IC50 (HL-60 cells; 48 h): 0.88 ± 0.08 µM | IC50 (MCF-7 cells; 48 h): 6.76 ± 0.08 µM | IC50 (HUVECs): 3.7 ± 0.23 µM | IC50 (MCF-10A cells): 6.4 ± 0.03 µM

Molecule: Cc1c(C)[n+](Cc2ccccc2)c(C)n1Cc1ccccc1 [lepidiline B]
activity against FDIGROV cell line (FDIGROV cell line): some activity; also recorded: highly cytotoxic | activity against UMUC3 cell line (UMUC3 cell line): promising activity; also recorded: highly cytotoxic | activity against PACA2 cell line (PACA2 cell line): promising activity; also recorded: highly cytotoxic | activity against MDA231 cell line (MDA231 cell line): promising activity; also recorded: highly cytotoxic

Molecule: Cc1cc(C)cc(COn2c[n+]([O-])c(C)c2C)c1 [3f, 1-(3,5-Dimethylbenzyloxy)-4,5-dimethyl-1H-imidazole 3-oxide]
melting point: 96 to 98 °C

Molecule: Cc1ccc(COn2c[n+]([O-])c(C)c2C)cc1 [3e, 1-(4-Methylbenzyloxy)-4,5-dimethyl-1H-imidazole 3-oxide]
melting point: 101 to 102 °C

Molecule: Cc1ccccc1COn1c[n+]([O-])c(C)c1C [3d, 1-(2-Methylbenzyloxy)-4,5-dimethyl-1H-imidazole 3-oxide]
melting point: 89 to 91 °C

Molecule: Cc1cc(C)cc(CO[n+]2cn(OC34CC5CC(CC(C5)C3)C4)c(C)c2C)c1 [6b, 1-Adamantyloxy-3-(3,5-dimethylbenzyloxy)-4,5-dimethylimidazolium hexafluorophosphate]
IC50 (HL-60 cells; Homo sapiens, HL-60, 48 h): 0.37 ± 0.01 µM | IC50 (MCF-7 cells; Homo sapiens, MCF7, 48 h): 2.52 ± 0.03 µM

Molecule: Cc1[nH]c(C23CC4CC(CC(C4)C2)C3)[n+](OCc2ccccc2)c1C.[Br-] [4c, 1-Adamantyl-3-benzyloxy-4,5-dimethylimidazolium bromide]
melting point: 196 to 197 °C

Molecule: Cc1c(C)[n+](OCc2ccccc2)cn1Cc1ccccc1.[Br-] [4a, 1-Benzyl-3-benzyloxy-4,5-dimethylimidazolium bromide]
melting point: 148 to 150 °C

Molecule: Cc1c(C)[n+](Cc2ccccc2)cn1Cc1ccccc1 [lepidiline A]
activity against FDIGROV cell line (FDIGROV cell line): some activity

Molecule: Cc1ccccc1CO[n+]1cn(OCc2ccccc2)c(C)c1C [5e, 1-Benzyloxy-3-(2-methylbenzyloxy)-4,5-dimethylimidazolium bromide]
IC50 (HL-60 cells; Homo sapiens, HL-60, 48 h): 3.16 ± 0.18 µM | IC50 (MCF-7 cells; Homo sapiens, MCF7, 48 h): 11.6 ± 0.25 µM

Molecule: 1-Adamantyloxy-3-(3,5-dimethylbenzyloxy)-4,5-dimethylimidazolium bromide [5k]
IC50 (HL-60 cells; 48 h): 0.36 ± 0.01 µM | IC50 (MCF-7 cells; 48 h): 2.4 ± 0.06 µM | IC50 (HUVECs): 1.82 ± 0.08 µM | IC50 (MCF-10A cells): 1.36 ± 0.01 µM

Molecule: c1ccc(CO[n+]2cn(Cc3ccccc3)c(-c3ccccc3)c2-c2ccccc2)cc1 [6a, 1-Benzyl-3-benzyloxy-4,5-diphenylimidazolium hexafluorophosphate]
IC50 (HL-60 cells; Homo sapiens, HL-60, 48 h): 0.64 ± 0.02 µM | IC50 (MCF-7 cells; Homo sapiens, MCF7, 48 h): 1.29 ± 0.01 µM

Molecule: [Br-].c1ccc(CO[n+]2cn(Cc3ccccc3)c(-c3ccccc3)c2-c2ccccc2)cc1 [4b, 1-Benzyl-3-benzyloxy-4,5-diphenylimidazolium bromide]
IC50 (HL-60 cells; 48 h): 0.7 ± 0.03 µM | IC50 (MCF-7 cells; 48 h): 1.53 ± 0.09 µM | IC50 (HUVECs; Homo sapiens, HUVEC): 0.97 ± 0.03 µM | IC50 (MCF-10A cells; Homo sapiens, MCF-10A): 0.57 ± 0.01 µM | melting point: 167 to 169 °C

Molecule: 1-Adamantyloxy-3-(4-methylbenzyloxy)-4,5-dimethylimidazolium bromide [5j]
IC50 (HL-60 cells; 48 h): 0.39 ± 0.01 µM | IC50 (MCF-7 cells; 48 h): 2.63 ± 0.03 µM | IC50 (HUVECs): 1.94 ± 0.01 µM | IC50 (MCF-10A cells): 1.69 ± 0.04 µM

Molecule: Cc1c(C)[n+]([O-])cn1OCc1ccccc1 [3c, 1-Benzyloxy-4,5-dimethyl-1H-imidazole 3-oxide]
melting point: 103 to 105 °C

Second part, led by results:

melting point: 163 to 166 °C
Molecule: c1ccc(CO[n+]2cn(Cc3ccccc3)c(-c3ccccc3)c2-c2ccccc2)cc1 (as salt: phosphate) [6a, 1-Benzyl-3-benzyloxy-4,5-diphenylimidazolium hexafluorophosphate]

melting point: 111 to 113 °C
Molecule: Cc1ccc(COn2c[n+](OCc3ccc(C)cc3)c(C)c2C)cc1.[Br-] [5c, 1,3-Di-(4-methylbenzyloxy)-4,5-dimethylimidazolium bromide]
IC50 (HL-60 cells; Homo sapiens, HL-60, 48 h): 4.88 ± 0.18 µM | IC50 (MCF-7 cells; Homo sapiens, MCF7, 48 h): 24.2 ± 0.46 µM

melting point: 87 to 88 °C
Molecule: Cc1c(C)n(OCc2ccccc2)c(=S)n1OCc1ccccc1 [7c, 1,3-Dibenzyloxy-4,5-dimethylimidazole-2-thione]

melting point: 124 to 126 °C
Molecule: Cc1ccc(CO[n+]2cn(OCc3ccccc3)c(C)c2C)cc1.[Br-] [5f, 1-Benzyloxy-3-(4-methylbenzyloxy)-4,5-dimethylimidazolium bromide]
IC50 (HL-60 cells; Homo sapiens, HL-60, 48 h): 2.91 ± 0.08 µM | IC50 (MCF-7 cells; Homo sapiens, MCF7, 48 h): 16.6 ± 1.06 µM

melting point: 110 to 111 °C
Molecule: Cc1c(C)[n+](OCc2ccccc2)cn1OCc1ccccc1.[Br-] [5a, 1,3-Dibenzyloxy-4,5-dimethylimidazolium bromide]

melting point: 132 to 133 °C
Molecule: Cc1ccccc1COn1c[n+](OCc2ccccc2C)c(C)c1C.[Br-] [5b, 1,3-Di-(2-methylbenzyloxy)-4,5-dimethylimidazolium bromide]
IC50 (HL-60 cells; Homo sapiens, HL-60, 48 h): 1.54 ± 0.01 µM | IC50 (MCF-7 cells; Homo sapiens, MCF7, 48 h): 8.3 ± 0.01 µM

melting point: 116 to 117 °C
Molecule: Cc1c(C)n(OCc2ccccc2)c(=S)n1Cc1ccccc1 [7a, 1-Benzyl-3-benzyloxy-4,5-dimethylimidazole-2-thione]

melting point: 150 to 152 °C
Molecule: Cc1cc(C)cc(CO[n+]2cn(OC34CC5CC(CC(C5)C3)C4)c(C)c2C)c1 (as salt: phosphate) (hydrate or solvate) [6b, 1-Adamantyloxy-3-(3,5-dimethylbenzyloxy)-4,5-dimethylimidazolium hexafluorophosphate]

melting point: 141 to 143 °C
Molecule: Cc1cc(C)cc(COn2c[n+](OCc3cc(C)cc(C)c3)c(C)c2C)c1.[Br-] [5d, 1,3-Di-(3,5-dimethylbenzyloxy)-4,5-dimethylimidazolium bromide]
IC50 (HL-60 cells; Homo sapiens, HL-60, 48 h): 1.46 ± 0.02 µM | IC50 (MCF-7 cells; Homo sapiens, MCF7, 48 h): 8.57 ± 0.37 µM
